Values joined by “and” are separate entries in the source; they are usually repeats but may differ in a detail not shown here. Equal entries are not always repeated.
How the values were obtained:
[1] = tested on: HER2-overexpressing human gastric cancer cell line NCI-N87; test: NCI-N87 subcutaneous xenograft, zongertinib with T-DM1; type: in vivo, NMRI-Foxn1^nu mice; conditions: for Regressions >30% / TGI: day 21; for Regressions >30%: tumors regressed/total; for Time to reach 300 mm^3: median, after stop of treatment at day 21
Protocol: The study is performed in human gastric cancer cell line NCI-N87 grown as subcutaneous xenografts in NMRI-Foxn1^nu mice. Day 1 was the first day, day 21 the last day of treatment and day 22 the final day of analysis. […]
NCI-N87 is a HER2-overexpressing human gastric cancer cell line that can be obtained from the American Type Culture Collection (ATCC #CRL-5822). Cells are cultured in T175 tissue culture flasks at 37° C. and 5% CO2. The medium used is RPMI 1640 (ATCC #30-2001) supplemented with 10% fetal calf serum (FCS) (Thermo Scientific #SH 30084.03). Cultures are split twice weekly with a ratio of 1:2.
Mice are 6- to 10-week-old female NMRI-Foxn1^nu purchased from Taconic, Denmark. After arrival at the animal facility, mice are allowed to adjust to conditions at least for 5 days before they are used for the experiment. They are housed in Macrolon® type III cages in groups of 8 to 10 under pathogen-free, controlled and standardized conditions at 21.5±1.5° C. temperature, 55±10% humidity and 12-h light-dark cycle. Standardized diet (PROVIMI KLIBA) and autoclaved tap water are provided ad libitum. Subcutaneous microchips implanted under isoflurane anaesthesia are used to identify each mouse. Cage cards showing the study number, the animal identification number, the compound, the dose level, the administration route as well as the schedule remain with the animals throughout the study.
To establish subcutaneous tumors, NCI-N87 cells are harvested by centrifugation, washed and resuspended in PBS+5% FCS at 2.5×10^7 cells/ml. 100 μl cell suspension containing 2.5×10^6 cells is injected subcutaneously into the right flank of the mice (1 site per mouse).
The suspension is used for a maximum of 7 days.
T-DM1 (Kadcyla) can be purchased from Roche.
Mice in the control group are treated with vehicle, i.e.: • (i) 0.5% Natrosol, administered once daily for the duration of the treatment intragastrally by gavage needle with a volume of 10 ml/kg body weight; and • (ii) saline (0.9%), administered once every three weeks intravenously into the tail vein with a volume of 5 ml/kg.
Tumor volumes are measured three times a week with a caliper. The volume of each tumor [in mm^3] is calculated according to the formula: […]
To monitor side effects of treatment, mice are inspected daily for abnormalities and body weight is determined three times a week. […] In addition, animals with tumor sizes exceeding 1500 mm^3 in diameter, with ulcerating tumors or 18% body weight loss are euthanized for ethical reasons.
For a quick overview of possible treatment effects, the median of the tumor volume of each treatment group T is referred to the median of the control C as tumor growth inhibition (TGI) defined as: […]
To do so, the time until the tumor reached a critical volume of 300 mm^3 can be included as an additional evaluation parameter. If an animal is sacrificed for tumor necrosis without reaching the critical tumor volume, the time point is set to the last measurement time point and included as a censored observation.
The median survival time is derived from the Kaplan Meier survival curves per group as the time point with a survival probability (probability of reaching the critical tumor volume) of 0.5. For the treatment groups the median survival time is referred to the corresponding time of the control group as an estimate for the prolongation of the time to critical tumor volume by the therapy.

[2] = tested on: HER2-overexpressing human breast cancer cell line BT-474; test: BT-474 orthotopic xenograft, zongertinib with T-DM1; type: in vivo, NMRI-Foxn1^nu mice; conditions: for stable disease / Regressions >30% / TGI: day 42; for stable disease: number of tumors; for stable disease / mice that lost some weight and had to be euthanized: zongertinib 10 mg/kg qdx42, T-DM1 6 mg/kg q21dx2, monotherapies; for Regressions >30%: tumors regressed/total (partial response); for Regressions >30% / TGI: zongertinib 10 mg/kg qdx42 p.o., T-DM1 6 mg/kg q21dx2 i.v., alone or combined
Protocol: The study is performed in human breast cancer cell line BT-474 grown as orthotopic xenografts in NMRI-Foxn1^nu mice. Day 1 was the first day, day 42 the last day of treatment and final day of analysis.
BT-474 is obtained and cultured as described in Example 10 (see paragraph 10.1.2).
Tumors are established and randomized as described in Example 10 (see paragraph 10.14), except that mice are randomly distributed between the treatment and the vehicle control group (22 days after cell injection) when tumors are well established and have reached volumes of 84 to 310 mm^3.
Tumor volumes and side effects are monitored as described in Example 1 (see paragraph 1.1.6), except that control animals are sacrificed when the median tumor volume of the group reaches a size of approximately 710 mm^3.
The statistical evaluation of the tumor volume and the body weight is conducted on day 42 (last day of the study). Apart from this, statistical analysis was performed as described in Example 1 (see paragraph 1.1.7), with no evaluation of tumor growth after stop of treatment.

[3] = zongertinib 5 mg/kg qdx21 p.o., alone or combined with T-DM1 10 mg/kg q21dx1 i.v.
[4] = zongertinib 20 mg/kg qdx21 p.o., T-DM1 10 mg/kg q21dx1 i.v., alone or combined
[5] = zongertinib 20 mg/kg/day, T-DM1 10 mg/kg, alone or combined

Row | Molecule | Regressions >30% [1, 3] | Regressions >30% [1, 4] | TGI [1, 3] | TGI [1, 4] | Time to reach 300 mm^3 [1, 3] | effect on tumor growth (median tumor volumes over time) ([1]; zongertinib 5 mg/kg/day, alone or combined with T-DM1 10 mg/kg) | effect on tumor growth (median tumor volumes over time) [1, 5] | stable disease [2] | Regressions >30% [2] | Regressions >30% ([2]; listed as zongertinib) | TGI [2] | mice that lost some weight and had to be euthanized [2] | Time to reach 300 mm^3 [1, 4]
1 | C=CC(=O)NC1CCN(c2ncc3ncnc(Nc4ccc(Oc5ccc6c(c5)ncn6C)c(C)c4)c3n2)CC1 [Zongertinib, N-{1-[8-({3-methyl-4-[(1-methyl-1H-1,3-benzodiazol-5-yl)oxy]phenyl}amino)-[1,3]diazino [5,4-d]pyrimidin-2-yl]piperidin-4-yl}prop-2-enamide] | 0/8 | 8/8 | 45% | 145% | 30.0 days | did not shrink tumors | induced deep and persistent tumor shrinkage | no stable disease | 0/7 | no partial responses | 86% | 1 out of 8 | –
2 | trastuzumab emtansine [T-DM1, reference compound] | – | 1/8 | – | 67% | – | – | suppressed the growth of NCI-N87 tumors but did not shrink them | 3 | 1 and 1/5 | – | 85% | 2 out of 8 | 39.5 days

Source: patent US20250228858A1, “ANTI-CANCER COMBINATION THERAPY” (Boehringer Ingelheim International GmbH, priority 2023, published 2025)
